Columns and labels:
[1] = tested on: Arc mRNA expression in mouse hippocampus; assay: Arc mRNA expression in hippocampus (RT-PCR, PD marker); format: in vivo; details: 90 min after treatment
Protocol: For in vivo pharmacodynamics (PD) marker analysis, mice were sacrificed by decapitation at 90 min after administration of Compound A or Compound B. Hippocampal tissues were isolated from the brain. These tissues were stored at -80° C. until RNA extraction. Total RNA from individual tissues was extracted using QIAzol Lysis Reagent and the RNeasy kit (Quiagen, Hilden, Germany) following the manufacturer's instruction. RT-PCR was carried out using ABI PRISM 7900HT sequence detection system (Life Technologies, Bedford, MA) and TagMan reagents (Eurogentec, Seraing, Belgium). RNA quantities were normalized using glyceraldehyde-3-phosphate dehydrogenase (GAPDH) mRNA transcripts according to manufacturer's instruction. The following primers were used for mouse Arc analysis: forward primer, [NT] ID NO:3); reverse primer, [NT] ID NO:4), TagMan probe, [NT] ID NO:5). The primers used for mouse Gapdh analysis were TagMan Rodent GAPDH Control Reagent, VIC probe, purchased from ABI (Applied biosystems-Life Technologies, Waltham, MA).

[2] = tested on: scopolamine-induced cognitive deficits in mice; assay: Y-maze task, scopolamine-induced cognitive deficits; format: in vivo, mouse; details: for scopolamine-induced cognitive deficits in Y-maze task: 5-min measurement
Protocol: The Y-maze apparatus has a three-arm maze with equal angles between all arms and made of black colored acrylic. Each arm consisted of 40 cm length, 4 cm width, and 12 cm walls. The Y-maze was located in a sound-attenuated room and illuminated at 10 lux. Compound B (10 or 30 mg/kg) and Compound A (1, 3 or 10 mg/kg) were pretreated orally at 60 min prior to the testing. After 30 min, memory impairment was induced by administering scopolamine (0.3 or 1 mg/kg, as hydrobromide salt, s.c.). At 30 min after the administration of scopolamine, mice were placed in the Y-maze and then spontaneous alternation performance was assessed visually for 5 to 8 min. Each animal underwent one trial. A mouse was considered to have entered an arm when all four paws were positioned in one third of the arm runway from the center of the Y maze. Alternations were defined as successive entries into each of the three arms on overlapping triplet sets, and alternation rate, expressed as a percentage, referred to the ratio of actual (total alternations) to possible alternations (total arm entries−2)×100.

[3] = biological target: T1, M5R (Homo sapiens, UniProt P08912); assay: Ca2+ flux assay in CHO-K1 cells expressing human M5R; format: cell-based; parameters: expressed in transfected cells; host or cells: CHO-K1; details: read-out: IP for M5R
T1 sequence (P08912 1-532): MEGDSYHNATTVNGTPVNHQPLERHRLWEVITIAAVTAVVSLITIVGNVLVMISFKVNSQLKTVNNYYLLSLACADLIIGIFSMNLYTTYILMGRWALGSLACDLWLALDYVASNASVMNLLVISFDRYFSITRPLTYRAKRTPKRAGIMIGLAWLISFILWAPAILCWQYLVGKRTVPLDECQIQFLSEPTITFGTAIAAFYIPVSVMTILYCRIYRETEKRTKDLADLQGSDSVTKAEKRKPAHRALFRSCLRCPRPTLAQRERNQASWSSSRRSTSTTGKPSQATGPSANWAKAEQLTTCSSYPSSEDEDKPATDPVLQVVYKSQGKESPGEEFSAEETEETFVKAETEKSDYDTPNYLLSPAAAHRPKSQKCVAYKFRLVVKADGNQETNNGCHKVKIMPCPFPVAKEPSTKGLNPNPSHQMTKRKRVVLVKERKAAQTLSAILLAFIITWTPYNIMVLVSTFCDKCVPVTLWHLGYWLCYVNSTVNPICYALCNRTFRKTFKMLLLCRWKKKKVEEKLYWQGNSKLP

[4] = tested on: scopolamine-induced cognitive deficits in rats; assay: Novel object recognition task (NORT), scopolamine-induced memory deficits; format: in vivo, rat; details: for minimal efficacy dose in rats (cognitive improvement): NORT, p.o.; for minimal efficacy dose in rats (cognitive improvement) / NDI: scopolamine-treated rats
Protocol: On the day before testing, Long Evans rats were allowed to habituate to the behavioral test room environment for over 1 h, and then they were allowed to habituate to the empty test box (a gray-colored polyvinyl chloride box (40×40×50 cm)) for 10 min individually. Testing was comprised of two 3-min trials called the acquisition and the retention trials. These trials were separated by a given inter-trial interval (ITI). On the testing day, in the acquisition trial, rats were allowed to explore two identical objects (A1 and A2) for 3 min. In the retention trial, rats were again allowed to explore a familiar object (A3) and a novel object (B) for 3 min. The object exploration was defined as rats' licking, sniffing or touching the object with limbs while sniffing. Leaning against the object to look upward, standing or sitting on the object was excluded. The exploration time of each object (A1, A2, A3 and B) in each trial was measured manually. Novel discrimination index (NDI) was calculated using the following equation: novel object interaction/total interaction×100(%).
The acquisition and the retention trials were separated by 4 h ITI. […] Scopolamine (0.1 mg/kg) was administered subcutaneously 30 min prior to the acquisition trial.
(§1) The acquisition and the retention trials were separated by 4 h ITI.
as §1

[5] = tested on: isolated mouse ileum; assay: In vitro Magnus method, spontaneous ileum motility; details: cumulative concentrations
Protocol: After overnight fasting, mice were sacrificed. The ileum was quickly dissected out and suspended in ice-cold Krebs solution with the following composition (in mM): NaCl, 120.7; KCl, 5.9; CaCl2, 2.5; MgCl2, 1.2; NaHCO3, 15.5; NaH2PO4, 1.2; and glucose, 11.5. Longitudinal segments of ileum (10-15 mm long) were detached of mesentery and adipose tissue, and mounted in organ baths containing 10 mL of Krebs solution aerated with 95% O2/5% CO2. Bath temperature was maintained at 37° C. The isolated ileum was given a passive load of 0.5 g. The contractile response of the isolated ileum was continuously recorded with isometric transducer (MLT050/A, ADInstruments, New South Wales, Australia) and recorder (PowerLab 8/30 ML870 and Octal Bridge Amp ML228, ADInstruments). […]
The contraction was measured as the maximum strength from the baseline. The effects of experimental substances on the maximum contraction were measured. […] The effect of each concentration of the compounds on ileum spontaneous contraction induced was calculated from the average value of 6 responses of the maximum strength. Then the ileum contractile response was expressed as a ratio of the mean maximum contraction to that obtained with the pre-treated DMSO (solvent). […] Due to very small size of relaxations, the effects of the compounds on them was not be analyzed.

Cn1cc(-c2ccc(CN3Cc4cccc(Oc5c(F)cccc5C#N)c4C3=O)cc2)cn1 [Compound B, 3-fluoro-2-((2-(4-(1-methyl-1H-pyrazol-4-yl)benzyl)-3-oxo-2,3-dihydro-1H-isoindol-4-yl)oxy)benzonitrile]
increase in Arc mRNA expression level in mouse hippocampus ([1]; 10-100 mg/kg p.o.): about 2 fold
scopolamine-induced cognitive deficits in Y-maze task ([2]; 30 mg/kg p.o.): significantly ameliorated

Cc1c(Cc2ccc(-n3cccn3)cc2)cc2c(c1F)CN([C@H]1COCC[C@@H]1O)C2=O [Compound D, 4-fluoro-2-[(3S,4S)-4-hydroxytetrahydro-2H-pyran-3-yl]-5-methyl-6-[4-(1H-pyrazol-1-yl)benzyl]-2,3-dihydro-1H-isoindol-1-one]
EC50 [3]: > 10 µM
NDI in NORT, scopolamine-induced deficits ([4]; 0.3, 1, and 3 mg/kg p.o., rats, P≤0.025): significantly increased NDI
minimal efficacy dose in rats (cognitive improvement) [4]: 0.3 mg/kg
NDI ([4]; 0.1 mg/kg p.o. alone, Example 28): 54.1%
NDI ([4]; Compound D 0.1 mg/kg p.o. alone, Example 31): 56.8%
spontaneous ileum motility [5]: lower impact on ileum motility

Cn1ccc(-c2ccc(CN3Cc4cccc(O[C@H]5CCCC[C@@H]5O)c4C3=O)cc2)n1 [Compound A, 7-(((1S,2S)-2-hydroxycyclohexyl)oxy)-2-(4-(1-methyl-1H-pyrazol-3-yl)benzyl)isoindolin-1-one]
Arc mRNA expression level in mouse hippocampus ([1]; 30 mg/kg p.o.): significant increase
Arc mRNA expression level in mouse hippocampus ([1]; 3-30 mg/kg p.o.): enhanced the expression level of Arc mRNA in a dose-dependent manner
scopolamine-induced cognitive deficits in Y-maze task ([2]; 10 mg/kg p.o.): trends to improve
scopolamine-induced decrease in spontaneous alternation ratio in Y-maze task ([2]; 10 mg/kg p.o., 8 min measurement): significantly ameliorated

Cn1cc(-c2ccc(Cc3cc4c(=O)n([C@H]5CCCC[C@@H]5O)cnc4c4ccccc34)cn2)cn1 [Compound C, 3-((1S,2S)-2-hydroxycyclohexyl)-6-((6-(1-methyl-1H-pyrazol-4-yl)pyridin-3-yl)methyl)benzo[h]quinazoline-4(3H)-one, reference compound]
EC50 [3]: > 1 µM
scopolamine-induced cognitive deficits in NORT ([4]; 0.1 and 0.3 mg/kg p.o., rats, P≤0.025): significantly ameliorated scopolamine-induced cognitive deficits
minimal efficacy dose in rats (cognitive improvement) [4]: 0.1 mg/kg
NDI ([4]; Compound C 0.03 mg/kg p.o. alone, Example 29): 52.3%
spontaneous ileum motility [5]: strengthened the spontaneous ileum motility in a concentration-dependent manner

From patent publication US12298319B2, “Method for measuring alpha value of muscarinic M1 receptor positive allosteric modulators” (Takeda Pharmaceutical Company Limited, priority 2017, dated 2025)
